Measured values reported in patent US11399542B2, “Pesticidally active heterocyclic derivatives with sulfur containing substituents” (SYNGENTA PARTICIPATIONS AG, priority 2017, dated 2022).

Columns and labels:
Format in all cases: in vivo
[1] = tested on: Diabrotica balteata (Corn Root Worm); assay: Example B4: Activity against Diabrotica balteata, sprayed maize sprouts; settings: 96 h, application rate 200 ppm, L2 larvae on maize sprouts, 4 days after infestation, read-out: effect in at least one of the two categories (mortality or growth inhibition)
Description: Maize sprouts placed onto an agar layer in 24-well microtiter plates were treated with aqueous test solutions prepared from 10′000 ppm DMSO stock solutions by spraying. After drying, the plates were infested with L2 larvae (6 to 10 per well). The samples were assessed for mortality and growth inhibition in comparison to untreated samples 4 days after infestation.

[2] = tested on: Myzus persicae (Green Peach Aphid); assay: Example B5: Activity against Myzus persicae, sprayed sunflower leaf discs; settings: foliar, 144 h, application rate 200 ppm, mixed-age aphids on sunflower leaf discs, 6 days after infestation
Description: (§1) Sunflower leaf discs were placed on agar in a 24-well microtiter plate and sprayed with aqueous test solutions prepared from 10′000 ppm DMSO stock solutions. After drying, the leaf discs were infested with an aphid population of mixed ages. The samples were assessed for mortality 6 days after infestation.

[3] = tested on: Myzus persicae (Green Peach Aphid); assay: Example B6: Activity against Myzus persicae, systemic via roots of pea seedlings; settings: 144 h, test rate 24 ppm, pea seedling roots in test solution, 6 days
Description: Roots of pea seedlings infested with an aphid population of mixed ages were placed directly in the aqueous test solutions prepared from 10′000 DMSO stock solutions. The samples were assessed for mortality 6 days after placing seedlings in test solutions.

[4] = tested on: Spodoptera littoralis (Egyptian Cotton Leaf Worm); assay: Example B1: Activity against Spodoptera littoralis, sprayed cotton leaf discs; settings: foliar, 72 h, application rate 200 ppm, L1 larvae on cotton leaf discs, 3 days after infestation, read-out: control (at least one of mortality, anti-feedant effect, growth inhibition)
Description: Cotton leaf discs were placed onto agar in 24-well microtiter plates and sprayed with aqueous test solutions prepared from 10′000 ppm DMSO stock solutions. After drying the leaf discs were infested with five L1 larvae. The samples were assessed for mortality, anti-feeding effect, and growth inhibition in comparison to untreated samples 3 days after infestation. Control of Spodoptera littoralis by a test sample is given when at least one of the categories mortality, anti-feedant effect, and growth inhibition is higher than the untreated sample.

[5] = tested on: Euschistus heros (Neotropical Brown Stink Bug); assay: Example B9: Activity against Euschistus heros, sprayed soybean leaf; settings: 120 h, application rate 200 ppm, N2 nymphs on soybean leaf, 5 days after infestation, read-out: effect in at least one of the two categories (mortality or growth inhibition)
Description: Soybean leaf on agar in 24-well microtiter plates were sprayed with aqueous test solutions prepared from 10′000 ppm DMSO stock solutions. After drying the leaf were infested with N2 nymphs. The samples were assessed for mortality and growth inhibition in comparison to untreated samples 5 days after infestation.

[6] = tested on: Plutella xylostella (Diamond Back Moth); assay: Example B12: Activity against Plutella xylostella, artificial diet, eggs; settings: 192 h, application rate 200 ppm, eggs on artificial diet, 8 days after infestation, read-out: effect in at least one of the two categories (mortality or growth inhibition)
Description: 24-well microtiter plates with artificial diet were treated with aqueous test solutions prepared from 10′000 ppm DMSO stock solutions by pipetting. After drying, Plutella eggs were pipetted through a plastic stencil onto a gel blotting paper and the plate was closed with it. The samples were assessed for mortality and growth inhibition in comparison to untreated samples 8 days after infestation.

[7] = tested on: Frankliniella occidentalis (Western Flower Thrips); assay: Example B8: Activity against Frankliniella occidentalis, sprayed sunflower leaf discs; settings: foliar, 168 h, application rate 200 ppm, mixed ages on sunflower leaf discs, 7 days after infestation
Description: as §1, with “in” for “in a”, “plates” for “plate”, “[…]” for “10′000 ppm”, “drying” for “drying,”, “a Frankliniella” for “an aphid”, “7” for “6”

| SMILES | percent effect (mortality or growth inhibition) at 200 ppm [1] | mortality at 200 ppm [2] | mortality at 24 ppm [3] | percent control (mortality, anti-feedant effect or growth inhibition) at 200 ppm [4] | percent effect (mortality or growth inhibition) at 200 ppm [5] | percent effect (mortality or growth inhibition) at 200 ppm [6] | mortality at 200 ppm [7] |
| --- | --- | --- | --- | --- | --- | --- | --- |
| CCSc1cc2c(nc1-c1nc3cc(C(F)(F)F)cnc3n1C)n(C)c(=O)n2C [Compound P24, 6-ethylsulfanyl-1,3-dimethyl-5-[3-methyl-6-(trifluoromethyl)imidazo[4,5-b]pyridine-2-yl]imidazo[4,5-b]pyridine-2-one] | ≥ 80% | – | – | – | – | – | – |
| CCOC(=O)n1c(=O)n(C)c2cc(S(=O)(=O)CC)c(-c3nc4cc(C(F)(F)F)cnc4n3C)cc21 [Compound P23, ethyl 5-ethylsulfonyl-3-methyl-6-[3-methyl-6-(trifluoromethyl)imidazo[4,5-b]pyridine-2-yl]-2-oxo-benzimidazole-1-carboxylate] | ≥ 80% | ≥ 80% | ≥ 80% | – | – | – | – |
| CCS(=O)(=O)c1cc2c(cc1-c1nc3cc(C(F)(F)F)cnc3n1C)n(C(=O)C1CC1)c(=O)n2C [Compound P20, 1-(cyclopropanecarbonyl)-5-ethylsulfonyl-3-methyl-6-[3-methyl-6-(trifluoromethyl)imidazo[4,5-b]pyridine-2-yl]benzimidazol-2-one] | – | ≥ 80% | – | – | – | – | – |
| CCS(=O)(=O)c1cc2c(cc1-c1nc3cc(S(=O)(=O)C(F)(F)F)ccc3o1)n(C)c(=O)n2C [Compound P25, 5-ethylsulfonyl-1,3-dimethyl-6-[5-(trifluoromethylsulfonyl)-1,3-benzoxazol-2-yl]benzimidazol-2-one] | ≥ 80% | – | – | ≥ 80% | ≥ 80% | ≥ 80% | – |
| CCS(=O)(=O)c1cc2c(cc1-c1nc3cc(C(F)(F)F)cnc3n1C)n(CSC)c(=O)n2C [Compound P17, 6-ethylsulfonyl-1-methyl-3-(methylsulfanylmethyl)-5-[3-methyl-6-(trifluoromethyl)imidazo[4,5-b]pyridine-2-yl]benzimidazol-2-one] | – | ≥ 80% | ≥ 80% | – | ≥ 80% | – | – |
| CCS(=O)(=O)c1cc2c(cc1-c1nc3cc(C(F)(F)F)ncc3n1C)n(C)c(=O)n2C [Compound P9, 5-ethylsulfonyl-1,3-dimethyl-6-[3-methyl-6-(trifluoromethyl)imidazo[4,5-c]pyridin-2-yl]benzimidazol-2-one] | – | ≥ 80% | ≥ 80% | – | ≥ 80% | – | ≥ 80% |
| CCSc1cc2c(cc1-c1nc3cc(SC(F)(F)F)ccc3n1C)n(C)c(=O)n2C [Compound P42, 5-ethylsulfanyl-1,3-dimethyl-6-[1-methyl-5-(trifluoromethyl-sulfanyl)benzimidazol-2-yl]benzimidazol-2-one] | – | – | – | – | ≥ 80% | ≥ 80% | – |
| CCS(=O)(=O)c1cc2c(cc1-c1nc3cc(C(F)(F)F)cnc3n1C)n(CC(F)(F)F)c(=O)n2C [Compound P19, 6-ethylsulfonyl-1-methyl-5-[3-methyl-6-(trifluoromethyl)imidazo[4,5-b]pyridine-2-yl]-3-(2,2,2-trifluoroethyl) benzimidazol-2-one] | ≥ 80% | ≥ 80% | ≥ 80% | ≥ 80% | ≥ 80% | – | – |
| CCS(=O)(=O)c1cc2c(cc1-c1nc3cc(SC(F)(F)F)ccc3o1)n(C)c(=O)n2C [Compound P29, 5-ethylsulfonyl-1,3-dimethyl-6-[5-(trifluoromethylsulfanyl)-1,3-benzoxazol-2-yl]benzimidazol-2-one] | ≥ 80% | – | – | ≥ 80% | ≥ 80% | ≥ 80% | – |
| CCSc1cc2c(cc1-c1nc3cc(C(F)(F)F)ncc3n1C)n(C)c(=O)n2C [Compound P10, 5-ethylsulfanyl-1,3-dimethyl-6-[3-methyl-6-(trifluoromethyl)imidazo[4,5-c]pyridin-2-yl]benzimidazol-2-one] | – | – | – | – | ≥ 80% | – | – |
| CCS(=O)(=O)c1cc2c(nc1-c1nc3cc(S(=O)(=O)C(F)(F)F)ccc3o1)n(C)c(=O)n2C [Compound P26, 6-ethylsulfonyl-1,3-dimethyl-5-[5-(trifluoromethylsulfonyl)-1,3-benzoxazol-2-yl]imidazo[4,5-b]pyridine-2-one] | ≥ 80% | – | – | ≥ 80% | – | ≥ 80% | – |
| CCS(=O)(=O)c1cc2c(cc1-c1nc3cc(C(F)(F)F)ccc3o1)n(C)c(=O)n2C [Compound P40, 5-ethylsulfonyl-1,3-dimethyl-6-[5-(trifluoromethyl)-1,3-benzoxazol-2-yl]benzimidazol-2-one] | – | – | – | – | – | ≥ 80% | – |
| CCS(=O)(=O)c1cc2c(nc1-c1nc3cc([S+]([O-])C(F)(F)F)ccc3n1C)n(C)c(=O)n2C (stereo not shown) [Compound P43, 6-ethylsulfonyl-1,3-dimethyl-5-[1-methyl-5-(trifluoromethyl-sulfinyl)benzimidazol-2-yl]imidazo[4,5-b]pyridin-2-one] | – | ≥ 80% | ≥ 80% | – | ≥ 80% | ≥ 80% | – |
| CCS(=O)(=O)c1cc2c(cc1-c1nc3cc(C(F)(F)F)cnc3n1C)n(S(=O)(=O)C1CC1)c(=O)n2C [Compound P13, 1-cyclopropylsulfonyl-5-ethylsulfonyl-3-methyl-6-[3-methyl-6-(trifluoromethyl)imidazo[4,5-b]pyridin-2-yl]benzimidazol-2-one] | – | ≥ 80% | ≥ 80% | – | – | – | – |
| CCS(=O)(=O)c1cc2c(cc1-c1nc3cc(C(F)(F)F)cnc3n1C)n(C#N)c(=O)n2C [Compound P14, 5-ethylsulfonyl-3-methyl-6-[3-methyl-6-(trifluoromethyl)imidazo[4,5-b]pyridin-2-yl]-2-oxo-benzimidazole-1-carbonitrile] | – | ≥ 80% | ≥ 80% | – | ≥ 80% | – | ≥ 80% |
| CCS(=O)(=O)c1cc2c(cc1-c1nc3cc([S+]([O-])C(F)(F)F)ccc3n1C)n(C)c(=O)n2C (stereo not shown) [Compound P44, 5-ethylsulfonyl-1,3-dimethyl-6-[1-methyl-5-(trifluoromethyl-sulfinyl)benzimidazol-2-yl]benzimidazol-2-one] | – | ≥ 80% | ≥ 80% | – | ≥ 80% | ≥ 80% | – |
| CCS(=O)(=O)c1cc2c(cc1-c1nc3cc(C(F)(F)F)nnc3n1C)n(C)c(=O)n2C [Compound P11, 5-ethylsulfonyl-1,3-dimethyl-6-[7-methyl-3-(trifluoromethyl)imidazo[4,5-c]pyridazin-6-yl]benzimidazol-2-one] | – | ≥ 80% | ≥ 80% | – | ≥ 80% | – | – |
| CCS(=O)(=O)c1cc2c(nc1-c1nc3cc(SC(F)(F)F)ccc3o1)n(C)c(=O)n2C [Compound P35, 6-ethylsulfonyl-1,3-dimethyl-5-[5-(trifluoromethylsulfanyl)-1,3-benzoxazol-2-yl]imidazo[4,5-b]pyridin-2-one] | ≥ 80% | – | – | ≥ 80% | – | ≥ 80% | – |
| CCS(=O)(=O)c1cc2c(cc1-c1nc3cc(S(=O)(=O)C(F)(F)F)ccc3n1C)n(C)c(=O)n2C [Compound P37, 5-ethylsulfonyl-1,3-dimethyl-6-[1-methyl-5-(trifluoromethyl-sulfonyl)benzimidazol-2-yl]benzimidazol-2-one] | – | ≥ 80% | – | – | ≥ 80% | ≥ 80% | – |
